According to ChEMBL document CHEMBL5370535, “Thiazolyl hydrazineylidenyl indolones as unique potential multitargeting broad-spectrum antimicrobial agents” (Eur J Med Chem, 2023):
Values after ≈ are worked out from the molar mass of the structure shown.

Experiments:
Type in all cases: functional
[1] = system: Staphylococcus aureus; assay: Antibacterial activity against methicillin-resistant Staphylococcus aureus assessed as bacterial growth inhibition incubated for 24 hrs by CLSI based two serial dilution assay
[2] = system: Enterococcus faecalis; assay: Antibacterial activity against Enterococcus faecalis assessed as bacterial growth inhibition incubated for 24 hrs by CLSI based two serial dilution assay
[3] = system: Staphylococcus aureus; assay: Antibacterial activity against Staphylococcus aureus assessed as bacterial growth inhibition incubated for 24 hrs by CLSI based two serial dilution assay
[4] = system: Staphylococcus aureus; assay: Antibacterial activity against Staphylococcus aureus 25923 assessed as bacterial growth inhibition incubated for 24 hrs by CLSI based two serial dilution assay
[5] = system: Staphylococcus aureus; assay: Antibacterial activity against Staphylococcus aureus 29213 assessed as bacterial growth inhibition incubated for 24 hrs by CLSI based two serial dilution assay
[6] = system: Klebsiella pneumoniae; assay: Antibacterial activity against Klebsiella pneumoniae assessed as bacterial growth inhibition incubated for 24 hrs by CLSI based two serial dilution assay
[7] = system: Escherichia coli; assay: Antibacterial activity against Escherichia coli assessed as bacterial growth inhibition incubated for 24 hrs by CLSI based two serial dilution assay
[8] = system: Escherichia coli; assay: Antibacterial activity against Escherichia coli 25922 assessed as bacterial growth inhibition incubated for 24 hrs by CLSI based two serial dilution assay
[9] = system: Pseudomonas aeruginosa; assay: Antibacterial activity against Pseudomonas aeruginosa assessed as bacterial growth inhibition incubated for 24 hrs by CLSI based two serial dilution assay
[10] = system: Pseudomonas aeruginosa; assay: Antibacterial activity against Pseudomonas aeruginosa ATCC 27853 assessed as bacterial growth inhibition incubated for 24 hrs by CLSI based two serial dilution assay
[11] = system: Acinetobacter baumannii; assay: Antibacterial activity against Acinetobacter baumannii assessed as bacterial growth inhibition incubated for 24 hrs by CLSI based two serial dilution assay
[12] = system: Candida albicans; assay: Antifungal activity against Candida albicans assessed as inhibition of fungal growth incubated for 24 hrs by CLSI based two serial dilution assay
[13] = system: Candida albicans; assay: Antifungal activity against Candida albicans ATCC 90023 assessed as inhibition of fungal growth incubated for 24 hrs by CLSI based two serial dilution assay
[14] = system: Candida tropicalis; assay: Antifungal activity against Candida tropicalis assessed as inhibition of fungal growth incubated for 24 hrs by CLSI based two serial dilution assay
[15] = system: Candida parapsilosis; assay: Antifungal activity against Candida parapsilosis ATCC 22019 assessed as inhibition of fungal growth incubated for 24 hrs by CLSI based two serial dilution assay; conditions: Lodderomyces parapsilosis
[16] = system: Aspergillus fumigatus; assay: Antifungal activity against Aspergillus fumigatus assessed as inhibition of fungal growth incubated for 24 hrs by CLSI based two serial dilution assay

Row | Compound | MIC [1] [µM] | MIC [2] [µM] | MIC [3] [µM] | MIC [4] [µM] | MIC [5] [µM] | MIC [6] [µM] | MIC [7] [µM] | MIC [8] [µM] | MIC [9] [µM] | MIC [10] [µM] | MIC [11] [µM] | MIC [12] [µM] | MIC [13] [µM] | MIC [14] [µM] | MIC [15] [µM] | MIC [16] [µM]
1 | CCCCCCCCN1C(=O)/C(=N\Nc2nccs2)c2ccccc21 | 512 (≈ 183 µg/mL) | 32 (≈ 11.4 µg/mL) | 512 (≈ 183 µg/mL) | 512 (≈ 183 µg/mL) | 512 (≈ 183 µg/mL) | 512 (≈ 183 µg/mL) | 512 (≈ 183 µg/mL) | 256 (≈ 91.3 µg/mL) | 64 (≈ 22.8 µg/mL) | 128 (≈ 45.6 µg/mL) | 512 (≈ 183 µg/mL) | 512 (≈ 183 µg/mL) | 256 (≈ 91.3 µg/mL) | 512 (≈ 183 µg/mL) | 128 (≈ 45.6 µg/mL) | 512 (≈ 183 µg/mL)
2 | C#CCN1C(=O)/C(=N\Nc2nccs2)c2ccccc21 | 256 (≈ 72.3 µg/mL) | 256 (≈ 72.3 µg/mL) | 256 (≈ 72.3 µg/mL) | 512 (≈ 145 µg/mL) | 512 (≈ 145 µg/mL) | 512 (≈ 145 µg/mL) | 512 (≈ 145 µg/mL) | 512 (≈ 145 µg/mL) | 256 (≈ 72.3 µg/mL) | 512 (≈ 145 µg/mL) | 512 (≈ 145 µg/mL) | 256 (≈ 72.3 µg/mL) | 256 (≈ 72.3 µg/mL) | 256 (≈ 72.3 µg/mL) | 64 (≈ 18.1 µg/mL) | 64 (≈ 18.1 µg/mL)
3 | CCCCN1C(=O)/C(=N\Nc2nc(C)c(C(C)=O)s2)c2ccccc21 | 512 (≈ 183 µg/mL) | 512 (≈ 183 µg/mL) | 16 (≈ 5.7 µg/mL) | 512 (≈ 183 µg/mL) | 16 (≈ 5.7 µg/mL) | 512 (≈ 183 µg/mL) | 512 (≈ 183 µg/mL) | 512 (≈ 183 µg/mL) | 16 (≈ 5.7 µg/mL) | 512 (≈ 183 µg/mL) | 512 (≈ 183 µg/mL) | 512 (≈ 183 µg/mL) | 512 (≈ 183 µg/mL) | 512 (≈ 183 µg/mL) | 512 (≈ 183 µg/mL) | 512 (≈ 183 µg/mL)
4 | CCCCCN1C(=O)/C(=N\Nc2nccs2)c2ccccc21 | 4 (≈ 1.26 µg/mL) | 4 (≈ 1.26 µg/mL) | 4 (≈ 1.26 µg/mL) | 16 (≈ 5.03 µg/mL) | 4 (≈ 1.26 µg/mL) | 4 (≈ 1.26 µg/mL) | 16 (≈ 5.03 µg/mL) | 4 (≈ 1.26 µg/mL) | 2 (≈ 0.629 µg/mL) | 16 (≈ 5.03 µg/mL) | 4 (≈ 1.26 µg/mL) | 4 (≈ 1.26 µg/mL) | 4 (≈ 1.26 µg/mL) | 16 (≈ 5.03 µg/mL) | 4 (≈ 1.26 µg/mL) | 4 (≈ 1.26 µg/mL)
5 | CCCCCCN1C(=O)/C(=N\Nc2nccs2)c2ccccc21 | 64 (≈ 21 µg/mL) | 4 (≈ 1.31 µg/mL) | 16 (≈ 5.26 µg/mL) | 32 (≈ 10.5 µg/mL) | 2 (≈ 0.657 µg/mL) | 16 (≈ 5.26 µg/mL) | 64 (≈ 21 µg/mL) | 16 (≈ 5.26 µg/mL) | 4 (≈ 1.31 µg/mL) | 32 (≈ 10.5 µg/mL) | 16 (≈ 5.26 µg/mL) | 32 (≈ 10.5 µg/mL) | 64 (≈ 21 µg/mL) | 16 (≈ 5.26 µg/mL) | 64 (≈ 21 µg/mL) | 32 (≈ 10.5 µg/mL)
6 | CCCCN1C(=O)/C(=N\Nc2nccs2)c2cc(Cl)ccc21 | 1 (≈ 0.335 µg/mL) | 32 (≈ 10.7 µg/mL) | 1 (≈ 0.335 µg/mL) | 1 (≈ 0.335 µg/mL) | 1 (≈ 0.335 µg/mL) | 0.5 (≈ 0.167 µg/mL) | 1 (≈ 0.335 µg/mL) | 0.5 (≈ 0.167 µg/mL) | 0.5 (≈ 0.167 µg/mL) | 0.5 (≈ 0.167 µg/mL) | 1 (≈ 0.335 µg/mL) | 0.5 (≈ 0.167 µg/mL) | 2 (≈ 0.67 µg/mL) | 16 (≈ 5.36 µg/mL) | 0.5 (≈ 0.167 µg/mL) | 4 (≈ 1.34 µg/mL)
7 | CCCCN1C(=O)/C(=N\Nc2nc(C)cs2)c2ccccc21 | 2 (≈ 0.629 µg/mL) | 16 (≈ 5.03 µg/mL) | 32 (≈ 10.1 µg/mL) | 8 (≈ 2.52 µg/mL) | 32 (≈ 10.1 µg/mL) | 4 (≈ 1.26 µg/mL) | 16 (≈ 5.03 µg/mL) | 4 (≈ 1.26 µg/mL) | 1 (≈ 0.314 µg/mL) | 512 (≈ 161 µg/mL) | 4 (≈ 1.26 µg/mL) | 256 (≈ 80.5 µg/mL) | 1 (≈ 0.314 µg/mL) | 4 (≈ 1.26 µg/mL) | 256 (≈ 80.5 µg/mL) | 64 (≈ 20.1 µg/mL)
8 | CCCCN1C(=O)/C(=N\Nc2nc(C)c(C(=O)OCC)s2)c2ccccc21 | 128 (≈ 49.5 µg/mL) | 256 (≈ 98.9 µg/mL) | 64 (≈ 24.7 µg/mL) | 512 (≈ 198 µg/mL) | 64 (≈ 24.7 µg/mL) | 256 (≈ 98.9 µg/mL) | 256 (≈ 98.9 µg/mL) | 128 (≈ 49.5 µg/mL) | 1 (≈ 0.386 µg/mL) | 256 (≈ 98.9 µg/mL) | 128 (≈ 49.5 µg/mL) | 512 (≈ 198 µg/mL) | 512 (≈ 198 µg/mL) | 128 (≈ 49.5 µg/mL) | 256 (≈ 98.9 µg/mL) | 128 (≈ 49.5 µg/mL)
9 | CCCCN1C(=O)/C(=N\Nc2nccs2)c2cccc(Cl)c21 | 0.5 (≈ 0.167 µg/mL) | 1 (≈ 0.335 µg/mL) | 64 (≈ 21.4 µg/mL) | 0.5 (≈ 0.167 µg/mL) | 64 (≈ 21.4 µg/mL) | 0.5 (≈ 0.167 µg/mL) | 1 (≈ 0.335 µg/mL) | 0.5 (≈ 0.167 µg/mL) | 1 (≈ 0.335 µg/mL) | 0.5 (≈ 0.167 µg/mL) | 0.5 (≈ 0.167 µg/mL) | 0.5 (≈ 0.167 µg/mL) | 1 (≈ 0.335 µg/mL) | 4 (≈ 1.34 µg/mL) | 32 (≈ 10.7 µg/mL) | 128 (≈ 42.9 µg/mL)
10 | CCCCN1C(=O)/C(=N\Nc2nccs2)c2cc(OC)ccc21 | 8 (≈ 2.64 µg/mL) | 4 (≈ 1.32 µg/mL) | 32 (≈ 10.6 µg/mL) | 16 (≈ 5.29 µg/mL) | 16 (≈ 5.29 µg/mL) | 128 (≈ 42.3 µg/mL) | 16 (≈ 5.29 µg/mL) | 4 (≈ 1.32 µg/mL) | 4 (≈ 1.32 µg/mL) | 32 (≈ 10.6 µg/mL) | 16 (≈ 5.29 µg/mL) | 64 (≈ 21.1 µg/mL) | 32 (≈ 10.6 µg/mL) | 128 (≈ 42.3 µg/mL) | 16 (≈ 5.29 µg/mL) | 32 (≈ 10.6 µg/mL)
